Assay [1] deals with HEK293 membranes over-expressing WFS-1 (Homo sapiens (Human), UniProt O76024). The experiment in a line: Radioligand displacement assay (tritiated Compound 136 probe). It is filed as binding. The settings on record: displacement of tritiated Compound 136. As for the experimental part:
Cell pellets were re-suspended in 15 times packed cellular volume in 4° C. hypotonic lysis buffer (10 mM HEPES, pH 7.5 containing 1×Protease inhibitor, 0.5 mM EDTA and 2 mM DTT). Re-suspended cells were homogenized with 6-8 strokes in a dounce homogenizer kept on ice. Lysates were centrifuged at 500×G for 15 minutes at 4° C. without brake to decelerate rotor. Following centrifugation, remove the supernatant to a fresh tube and place on ice (Supernatant 1). Repeat the above steps on the lysed cell pellet using 0.5 the original volume of hypotonic lysis buffer and remove the 500× G supernatant (Supernatant 2) and combine with Supernatant 1. Transfer the combined supernatants to a 45-Ti ultracentrifuge tube and centrifuge at 100,000× G for 30 minutes. Following ultracentrifugation, carefully remove the supernatant and discard. Resuspend the 100,000× G pellet in cold resuspension buffer (10 mM HEPES, pH 7.5, 300 mM NaCl containing 1× Protease inhibitor, 1× EDTA and 2 mM DTT). Centrifuge sample at 500× G for 10 minutes with no brake and remove any cloudy, flocculent material. Resuspend pellet in resuspension buffer to approximately 2 mg/mL of protein concentration for use in radioligand binding assay and immunoblotting.
The binding affinities of compounds were determined by measuring the competitive displacement of a tritiated Compound 136 probe from purified HEK293 membranes over-expressing WFS-1. The data for the radioligand displacement assay are summarized in Table 47: A<0.06 μM; 0.06 μM≤B<0.6 μM; 0.6 μM≤C<3.0 μM; D≥3.0 μM.
The probe Kd was determined by titrating tritiated probe under the standard assay conditions plus and minus excess unlabeled probe and fitting the resulting data to a “One site—Total and nonspecific binding” model in Graphpad Prism, version 6.0, San Diego, CA, US. Initially, 0.25 μl of compound dissolved in DMSO at varying concentrations was dispensed to a 384 well plate. Membrane and probe were both prepared at 2× their final concentration in 1× assay buffer as described above. 25 μL of membrane was added to the wells and incubated for 10 minutes. 25 μL of diluted probe was then added to the wells. The assay was incubated for 90 minutes at room temperature. The entire assay volume was then transferred to Millipore GF/B 384-well plates pretreated with 15 μL 0.5% PEI. The filter plates were washed 3× with 75 μL 25 mM TRIS, ph7.5, 0.1% BSA and then dried overnight. Following addition of 45 μL UltimaGold scintillant, the samples were counted in a Perkin Elmer Topcount. The radioactivity remaining is a measure of bound probe. From the bound probe vs concentration of compound titration curve, the IC50 is determined by fitting the data to a standard 3 parameter IC50 model using either Graphpad Prism, version 6.0, San Diego, CA, US, or using GeneData Analyzer, Basel, Switzerland.

For assay [2], the system named is β-catenin-TCF-mediated reporter transcription activity in Colo 205 cells. Nature of the assay: Colo 205 reporter assay (TCF/LEF luciferase). It is filed as cell-based. The settings on record: Colo 205 TCF/LEF luciferase reporter, read-out: TCF reporter Colo205 IC50. The gist of the method: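 Luciferase signal from a TCF/LEF-driven reporter, stably integrated in Colo 205 colon cancer cells, was measured 5 h after compound addition.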

Another assay concerns Colo-205 cells. The experiment in a line: Calcium flux assay (FLIPR Calcium 5). The settings on record: Homo sapiens, COLO 205, 0.6 h, FLIPR Calcium 5, measured over 36 minutes. It is filed as cell-based. The procedure:
Compounds described herein induced ER stress by causing intracellular calcium flux. Calcium flux was measured in Colo-205 cells using the FLTPR® Calcium 5 Assay Kit according to manufacter's protocol (Molecular Devices, Cat. #R8186) on a FLIPR3 system (Molecular Devices). Calcium flux is measured over 36 minutes. The Colo-205 calcium flux assay data are summarized in Table 47: A<0.6 μM; 0.6 μM≤B<2.0 μM; 2.0 μM≤C<10.0 μM; D≥10.0 μM.

The mark [3] stands for this setting: Homo sapiens, COLO 205, 5 h, five hours after addition of compound.
[4] abbreviates: Homo sapiens, COLO 205, 5 h, R-isomer at C2 (corresponding to C2 S-isomer), 5 h.
Setting [5] is: five hours after addition of compound.

Read-outs that look alike come from different tables or passages of the source.

Chain of HEK293 membranes over-expressing WFS-1 (O76024 whole entry): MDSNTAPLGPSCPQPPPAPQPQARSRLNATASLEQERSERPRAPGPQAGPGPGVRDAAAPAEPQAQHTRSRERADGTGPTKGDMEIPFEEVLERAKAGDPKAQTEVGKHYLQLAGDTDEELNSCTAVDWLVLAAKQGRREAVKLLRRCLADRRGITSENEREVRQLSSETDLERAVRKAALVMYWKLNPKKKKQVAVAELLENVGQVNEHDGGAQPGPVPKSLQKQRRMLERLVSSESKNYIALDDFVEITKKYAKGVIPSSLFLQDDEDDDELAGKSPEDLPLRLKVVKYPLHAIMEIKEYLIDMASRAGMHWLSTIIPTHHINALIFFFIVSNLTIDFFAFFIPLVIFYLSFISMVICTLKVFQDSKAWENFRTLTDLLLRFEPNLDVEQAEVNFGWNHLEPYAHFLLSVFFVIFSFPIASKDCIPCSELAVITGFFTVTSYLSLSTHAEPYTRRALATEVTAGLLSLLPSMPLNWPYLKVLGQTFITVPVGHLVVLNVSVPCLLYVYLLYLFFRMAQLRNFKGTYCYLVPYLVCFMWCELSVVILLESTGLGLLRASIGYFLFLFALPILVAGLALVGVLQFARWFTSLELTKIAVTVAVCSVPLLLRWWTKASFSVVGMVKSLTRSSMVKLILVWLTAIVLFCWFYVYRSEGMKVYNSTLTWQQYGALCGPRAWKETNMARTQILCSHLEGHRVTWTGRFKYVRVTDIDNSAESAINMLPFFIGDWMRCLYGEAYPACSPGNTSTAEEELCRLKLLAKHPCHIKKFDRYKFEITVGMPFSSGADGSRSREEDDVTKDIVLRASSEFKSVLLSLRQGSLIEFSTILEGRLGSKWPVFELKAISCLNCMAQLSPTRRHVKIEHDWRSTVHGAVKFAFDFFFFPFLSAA

`Cc1nc(N[C@@H](C)c2cnn(Cc3ccc(C(F)(F)F)nc3)c2)nc2c1NC(=O)[C@H](C)N2C` [Compound 216, (7S)-4,7,8-Trimethyl-2-(((S)-1-(1-((6-(trifluoromethyl)pyridin-3-yl)methyl)-1H-pyrazol-4-yl)ethyl)amino)-7,8-dihydropteridin-6(5H)-one]: the half-inhibitory concentration (IC50) in assay [1] was ≥ 3000 nM; in assay [2] (setting [3]), ≥ 5000 nM. For the same molecule, the concentration for a half-maximal effect (EC50) in the assay with Colo-205 cells is ≥ 10000 nM.
For `Cc1nc(N[C@H]2C[C@H](Oc3cc(F)c(F)c(F)c3)C2)nc2c1NC(=O)[C@H](CO)N2C` [Compound 677, (S)-7-(hydroxymethyl)-4,8-dimethyl-2-((trans-3-(3,4,5-trifluorophenoxy)cyclobutyl)amino)-7,8-dihydropteridin-6(5H)-one], the IC50 in assay [1] is 60 to 600 nM; in assay [2] (setting [3]) it was < 300 nM.
Turning to `CO[C@H](C)[C@H]1C(=O)Nc2c(C)nc(N[C@H]3C[C@H](Oc4ccc(C(F)(F)F)nc4)C3)nc2N1C` [Compound 684, (S)-7-((R)-1-methoxyethyl)-4,8-dimethyl-2-((trans-3-((6-(trifluoromethyl)pyridin-3-yl)oxy)cyclobutyl)amino)-7,8-dihydropteridin-6(5H)-one], the half-inhibitory concentration (IC50) was < 60 nM in assay [1] and < 300 nM in assay [2] (setting [3]). In the assay with Colo-205 cells, the EC50 was < 600 nM.
On the same counts, the results for `Cc1nc(N[C@H]2C[C@H](Oc3ccc(C(F)(F)F)nc3)C2)nc2c1NC(=O)[C@H](C(C)C)N2C` [Compound 685, (S)-7-isopropyl-4,8-dimethyl-2-((trans-3-((6-(trifluoromethyl)pyridin-3-yl)oxy)cyclobutyl)amino)-7,8-dihydropteridin-6(5H)-one] are < 60 nM, < 300 nM and < 600 nM.
On the same counts, the results for `CC[C@H]1C(=O)Nc2c(C)nc(N[C@H]3C[C@H](Oc4ccc(C(F)(F)F)nc4)C3)nc2N1C` [Compound 686, (S)-7-ethyl-4,8-dimethyl-2-((trans-3-((6-(trifluoromethyl)pyridin-3-yl)oxy)cyclobutyl)amino)-7,8-dihydropteridin-6(5H)-one] are < 60 nM, < 300 nM and < 600 nM.
On the same counts, the results for `Cc1nc(N[C@H]2C[C@@H](CNc3cnc(C(F)(F)F)cn3)C2)nc2c1NC(=O)[C@H](C(C)C)N2C` [Compound 711, (S)-7-isopropyl-4,8-dimethyl-2-((cis-3-(((5-(trifluoromethyl)pyrazin-2-yl)amino)methyl)cyclobutyl)amino)-7,8-dihydropteridin-6(5H)-one] are < 60 nM, < 300 nM and < 600 nM.
Consider `Cc1nc(N[C@H]2C[C@@H](Nc3ccc(C#N)cn3)C2)nc2c1NC(=O)[C@H](C(C)C)N2C` [Compound 716, 6-((cis-3-(((S)-7-isopropyl-4,8-dimethyl-6-oxo-5,6,7,8-tetrahydropteridin-2-yl)amino)cyclobutyl)amino)nicotinonitrile], for which the IC50 in assay [1] is < 60 nM; in assay [2] (setting [3]), < 300 nM. The concentration for a half-maximal effect (EC50) in the assay on Colo-205 cells was 600 to 2000 nM.
On the same counts, the results for `Cc1nc(N[C@H]2C[C@@H](Nc3ncc(C#N)cn3)C2)nc2c1NC(=O)[C@H](C(C)C)N2C` [Compound 717, 2-((cis-3-(((S)-7-isopropyl-4,8-dimethyl-6-oxo-5,6,7,8-tetrahydropteridin-2-yl)amino)cyclobutyl)amino)pyrimidine-5-carbonitrile] are 60 to 600 nM, 1000 to 5000 nM and 2000 to 10000 nM.
As to `Cc1nc(N[C@H]2C[C@@H](Cn3nccc3C(F)(F)F)C2)nc2c1NC(=O)[C@H](COC(C)(C)C)N2C` [Compound 723, (S)-7-(tert-butoxymethyl)-4,8-dimethyl-2-((cis-3-((5-(trifluoromethyl)-1H-pyrazol-1-yl)methyl)cyclobutyl)amino)-7,8-dihydropteridin-6(5H)-one], the IC50 is 60 to 600 nM in assay [1] and < 300 nM in assay [2] (setting [3]). Also, in the assay with Colo-205 cells, the EC50 lay in the range of 600 to 2000 nM.
For the molecule `CCC[C@@H]1C(=O)Nc2c(C)nc(NCc3cnn(Cc4ccc(C(F)(F)F)nc4)c3)nc2N1C` [Compound I-1638], the 50% inhibitory concentration (IC50) in assay [2] (setting [4]) lay within 1000 to 5000 nM.
The same measure, in the same setting: then `Cc1nc(NCc2cnn(Cc3ccc(C(F)(F)F)nc3)c2)nc2c1NC(=O)[C@@H](C1CC1)N2C` [Compound I-1639], with 1000 to 5000 nM; and `CC(=O)N(Cc1cnn(Cc2ccc(C(F)(F)F)nc2)c1)c1nc(C)c2c(n1)N(C)[C@H](C)C(=O)N2` [Compound I-1640], with ≥ 5000 nM; and `Cc1nc(NCc2cnn(Cc3ccc(F)nc3)c2)nc2c1NC(=O)[C@@H](C1CC1)N2C` [Compound I-1641], with ≥ 5000 nM.
Take `Cc1nc(NCc2cnn(Cc3ccc(OC(F)F)nc3)c2)nc2c1NC(=O)[C@@H](C(C)C)N2C` [Compound I-1642]: the concentration for half-maximal inhibition (IC50) in assay [2] (setting [4]) lay in the range of 1000 to 5000 nM.
On the same count and under the same terms, under `Cc1cc(F)ncc1Cn1cc(CNc2nc(C)c3c(n2)N(C)[C@H](C(C)C)C(=O)N3)cn1` [Compound I-1643] stands 1000 to 5000 nM; under `Cc1nc(NCc2cnn(Cc3ccc(Cl)nc3)c2)nc2c1N(C)C(=O)[C@@H](CCO)N2C` [Compound I-1644], 1000 to 5000 nM; under `Cc1nc(NCc2cnn(Cc3ccc(C(F)(F)F)nc3)c2)nc2c1NC(=O)[C@@H](CC(F)(F)F)N2C` [Compound I-1645], 1000 to 5000 nM.
On the same count and under the same terms, then `CC[C@@H]1C(=O)Nc2cnc(NCc3cnn(Cc4ccc(C(F)(F)F)nc4)c3)nc2N1C(C)C` [Compound I-1646], with ≥ 5000 nM; and `COCC[C@@H]1C(=O)Nc2c(C)nc(NCc3cnn(Cc4ccc(C(F)(F)F)nc4)c3)nc2N1C` [Compound I-1647], with 1000 to 5000 nM.
Same read-out and setting: under `COCC[C@@H]1C(=O)Nc2c(C)nc(NCc3cnn(Cc4cc(C(F)(F)F)nn4C)c3)nc2N1C` [Compound I-1648] stands ≥ 5000 nM.
As for `Cc1nc(NCc2cnn(Cc3ccnc(C#N)c3)c2)nc2c1NC(=O)[C@@H](C)N2C` [Compound I-1649], the IC50 in assay [2] (setting [4]) was ≥ 5000 nM.
`Cc1nc(N[C@H]2C[C@H](Oc3cc(F)c(F)c(F)c3)C2)nc2c1NC(=O)[C@@H](CO)N2C` [Compound I-1650]: in assay [2] (setting [4]), the half-maximal inhibitory concentration (IC50) is 1000 to 5000 nM.
Turning to “(7R)-5,7,8-triethyl-7-methyl-2-(((1-(3,4,5-trifluorobenzyl)-1H-pyrazol-4-yl)methyl)amino)-7,8-dihydropteridin-6(5H)-one [Compound 235]”, the concentration for half-maximal inhibition (IC50) in assay [2] (setting [5]) was < 300 nM.
The same measure, in the same setting: under “(7S)-4,5,7,8-tetramethyl-2-((trans-3-(3,4,5-trifluorophenoxy)cyclopentyl)amino)-7,8-dihydropteridin-6(5H)-one [Compound 269]” stands < 300 nM; under “(7S)-7-(2-hydroxyethyl)-4-methyl-2-(((1-((6-(trifluoromethyl)pyridin-3-yl)methyl)-1H-pyrazol-4-yl)methyl)amino)-7,8-dihydropteridin-6(5H)-one [Compound 440]”, < 300 nM; under “(S)-7-((S)-1-(tert-butoxy)ethyl)-4,8-dimethyl-2-(((1-(3,4,5-trifluorobenzyl)-1H-pyrazol-4-yl)methyl)amino)-7,8-dihydropteridin-6(5H)-one [Compound 747]”, 300 to 1000 nM.

The record behind these values is patent publication US20230312587A1, “PTERIDINONE COMPOUNDS AND USES THEREOF” (Vertex Pharmaceutical Incorporated, priority 2018, published 2023).
